In patent US7138361B2, “Herbicidal heterocycles” (E. I. du Pont de Nemours and Company, priority 2000, dated 2006):

What was measured:
Type in all cases: in vivo
[1] = tested on: barnyardgrass (Echinochloa crus-galli); experiment: Test C flooded paddy test; settings: for Barnyardgrass plant response rating: scale 0 to 100, 0 no effect, 100 complete control
Method in brief: (§1)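 Response on a 0-to-100 scale (no effect to complete control) was assessed by eye versus controls. Plants had reached 2 leaves when treated in flooded paddy conditions. The assessment took place after 12–14 days of greenhouse growth.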

[2] = tested on: smallflower flatsedge (Cyperus difformis); experiment: Test C flooded paddy test; settings: for Flatsedge plant response rating: Flooded Paddy, scale 0 to 100, 0 no effect, 100 complete control; for Plant response rating, Flatsedge: flooded paddy test, scale 0 to 100 (0 no effect, 100 complete control)
Method in brief: as §1

rice (Oryza saliva) [3] = experiment: Test C flooded paddy test; settings: for Rice plant response rating: scale 0 to 100, 0 no effect, 100 complete control
Method in brief: as §1

[4] = tested on: duck salad (Heteranthera limosa); experiment: Test C flooded paddy test; settings: for Ducksalad plant response rating: scale 0 to 100, 0 no effect, 100 complete control
Method in brief: as §1

[5] = tested on: velvetleaf (Abutilon theophrasti); experiment: Test A postemergence, sprayed to runoff; set-up: scale not given here; settings: approx. eleven days
Protocol: (§2) Seeds of barnyardgrass (Echinochloa crus-galli), crabgrass (Digitaria spp.), giant foxtail (Setaria viridis), morning glory (Ipomoea spp.), redroot pigweed (Amaranthus retroflexus) and velvetleaf (Abutilon theophrasti) were planted into a sandy loam soil and treated preemergence by soil drench with test chemicals formulated in a non-phytotoxic solvent mixture which included a surfactant. At the same time, these crop and weed species were also treated postemergence sprayed to runoff with test chemicals formulated in the same manner. Plants ranged in height from two to eighteen cm and were in the one- to two-leaf stage for the postemergence treatment. Treated plants and untreated controls were maintained in a greenhouse for approximately eleven days, after which time all treated plants were compared to untreated controls and visually evaluated for injury. Plant response ratings, summarized in Table A, are based on a 0 to 10 scale where 0 is no effect and 10 is complete control. A dash (-) response means no test results.

[6] = tested on: morning glory (Ipomoea spp.); experiment: Test A postemergence, sprayed to runoff; set-up: scale not given here; settings: Morningglory, approx. eleven days
Protocol: as §2

[7] = tested on: barnyardgrass (Echinochloa crus-galli); experiment: Test B flooded paddy test; settings: Rate 1000 g/ha, scale of 0 to 100 where 0 is no effect and 100 is complete control, visually evaluated after 13 to 15 days
Method in brief: (§3)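 Visual injury score on a 0–100 scale, where 100 means complete control, assigned against untreated controls 13 to 15 days after plants at the 2-leaf stage were treated under flooded paddy conditions.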

[8] = tested on: smallflower flatsedge (Cyperus difformis); experiment: Test B flooded paddy test; settings: Rate 1000 g/ha, scale of 0 to 100 where 0 is no effect and 100 is complete control, visually evaluated after 13 to 15 days
Method in brief: as §3

rice (Oryza saliva) [9] = experiment: Test B flooded paddy test; settings: Rate 1000 g/ha, scale of 0 to 100 where 0 is no effect and 100 is complete control, visually evaluated after 13 to 15 days
Method in brief: as §3

[10] = tested on: duck salad (Heteranthera limosa); experiment: Test B flooded paddy test; settings: Rate 1000 g/ha, scale of 0 to 100 where 0 is no effect and 100 is complete control, visually evaluated after 13 to 15 days
Method in brief: as §3

[11] = tested on: crabgrass (Digitaria spp.); experiment: Test A postemergence, sprayed to runoff; settings: approx. eleven days
Protocol: as §2

[12] = tested on: barnyardgrass (Echinochloa crus-galli); experiment: Test A postemergence, sprayed to runoff; settings: approx. eleven days
Protocol: as §2

[13] = tested on: redroot pigweed (Amaranthus retroflexus); experiment: Test A postemergence, sprayed to runoff; settings: approx. eleven days
Protocol: as §2

[14] = tested on: giant foxtail (Setaria viridis); experiment: Test A postemergence, sprayed to runoff; settings: approx. eleven days
Protocol: as §2

[15] = Flooded Paddy, Rate 500 g/ha, scale 0 to 100
[16] = Flooded Paddy, Rate 1000 g/ha, scale 0 to 100
[17] = flooded paddy test, Rate 62 g/ha, scale 0 to 100 (0 no effect, 100 complete control)
[18] = flooded paddy test, Rate 125 g/ha, scale 0 to 100 (0 no effect, 100 complete control)

CC(C)(C)c1ccn(C2CCN(c3cccc(C(F)(F)F)c3)C2=O)n1 (centres unmarked) [Example 3, 3-[3-(1,1-dimethylethyl)-1H-pyrazol-1-yl]-1-[3-(trifluoromethyl)phenyl]-2-pyrrolidinone]
Plant response rating, Barnyardgrass [1, 15]: 100
Plant response rating, Barnyardgrass [1, 16]: 100
Barnyardgrass plant response rating ([1]; Flooded Paddy, Rate 250 g/ha): 100
Plant response rating, Barnyardgrass [1, 17]: 20
Plant response rating, Barnyardgrass [1, 18]: 80
Flatsedge plant response rating ([2]; Rate 250 g/ha): 100
Flatsedge plant response rating ([2]; Rate 500 g/ha): 100
Flatsedge plant response rating ([2]; rate of this column group stands in head line r653, not shown (group before Rate 500 g/ha)): 100
Plant response rating, Flatsedge ([2]; Rate 62 g/ha): 90
Plant response rating, Flatsedge ([2]; Rate 125 g/ha): 100
Plant response rating, Rice (rice (Oryza saliva) [3]; [15]): 60
Plant response rating, Rice (rice (Oryza saliva) [3]; [16]): 90
Rice plant response rating (rice (Oryza saliva) [3]; Flooded Paddy, Rate 250 g/ha): 50
Plant response rating, Rice (rice (Oryza saliva) [3]; [17]): 0
Plant response rating, Rice (rice (Oryza saliva) [3]; [18]): 0
Plant response rating, Ducksalad [4, 15]: 90
Plant response rating, Ducksalad [4, 16]: 100
Ducksalad plant response rating ([4]; Flooded Paddy, Rate 250 g/ha): 80
Plant response rating, Ducksalad [4, 17]: 20
Plant response rating, Ducksalad [4, 18]: 80
Plant response rating (visual injury vs untreated controls) ([5]; Rate 250 g/ha): 0
Plant response rating (visual injury vs untreated controls) ([5]; Rate 1000 g/ha): 0
Plant response rating (visual injury vs untreated controls) ([6]; Rate 250 g/ha): 10
Plant response rating (visual injury vs untreated controls) ([6]; Rate 1000 g/ha): 10
Plant response rating, Barnyardgrass [7]: 100
Plant response rating, Flatsedge [8]: 100
Plant response rating, Rice (rice (Oryza saliva) [9]): 90
Plant response rating, Ducksalad [10]: 100
Plant response rating (visual injury vs untreated controls) ([11]; Rate 250 g/ha): 0
Plant response rating (visual injury vs untreated controls) ([11]; Rate 1000 g/ha): 0
Plant response rating (visual injury vs untreated controls) ([12]; Rate 250 g/ha): 20
Plant response rating (visual injury vs untreated controls) ([12]; Rate 1000 g/ha): 10
Plant response rating (visual injury vs untreated controls) ([13]; Rate 250 g/ha): 60
Plant response rating (visual injury vs untreated controls) ([13]; Rate 1000 g/ha): 10
Plant response rating (visual injury vs untreated controls) ([14]; Rate 250 g/ha): 0
Plant response rating (visual injury vs untreated controls) ([14]; Rate 1000 g/ha): 10

O=C1C(n2ccc(C3CC3)n2)SCN1c1cccc(C(F)(F)F)c1 (centres unmarked) [Compound 26]
Barnyardgrass plant response rating ([1]; Flooded Paddy, Rate 250 g/ha): 80
Barnyardgrass plant response rating ([1]; Flooded Paddy, Rate 500 g/ha): 100
Plant response rating, Barnyardgrass [1, 17]: 0
Plant response rating, Barnyardgrass [1, 18]: 50
Flatsedge plant response rating ([2]; Rate 250 g/ha): 95
Flatsedge plant response rating ([2]; Rate 500 g/ha): 95
Plant response rating, Flatsedge ([2]; Rate 62 g/ha): 90
Plant response rating, Flatsedge ([2]; Rate 125 g/ha): 90
Rice plant response rating (rice (Oryza saliva) [3]; Flooded Paddy, Rate 250 g/ha): 80
Rice plant response rating (rice (Oryza saliva) [3]; Flooded Paddy, Rate 500 g/ha): 80
Plant response rating, Rice (rice (Oryza saliva) [3]; [17]): 0
Plant response rating, Rice (rice (Oryza saliva) [3]; [18]): 40
Ducksalad plant response rating ([4]; Flooded Paddy, Rate 250 g/ha): 100
Ducksalad plant response rating ([4]; Flooded Paddy, Rate 500 g/ha): 70
Plant response rating, Ducksalad [4, 17]: 0
Plant response rating, Ducksalad [4, 18]: 80
Plant response rating (visual injury vs untreated controls) ([5]; Rate 500 g/ha): 10
Plant response rating (visual injury vs untreated controls) ([5]; Rate 2000 g/ha): 10
Plant response rating (visual injury vs untreated controls) ([6]; Rate 500 g/ha): 20
Plant response rating (visual injury vs untreated controls) ([6]; Rate 2000 g/ha): 50
Plant response rating, Barnyardgrass [7]: 0
Plant response rating, Flatsedge [8]: 0
Plant response rating, Rice (rice (Oryza saliva) [9]): 0
Plant response rating, Ducksalad [10]: 0
Plant response rating (visual injury vs untreated controls) ([11]; Rate 500 g/ha): 30
Plant response rating (visual injury vs untreated controls) ([11]; Rate 2000 g/ha): 20
Plant response rating (visual injury vs untreated controls) ([12]; Rate 500 g/ha): 90
Plant response rating (visual injury vs untreated controls) ([12]; Rate 2000 g/ha): 90
Plant response rating (visual injury vs untreated controls) ([13]; Rate 500 g/ha): 40
Plant response rating (visual injury vs untreated controls) ([13]; Rate 2000 g/ha): 80
Plant response rating (visual injury vs untreated controls) ([14]; Rate 500 g/ha): 50
Plant response rating (visual injury vs untreated controls) ([14]; Rate 2000 g/ha): 100

CC1CCc2cn(C3CCN(c4cccc(C(F)(F)F)c4)C3=O)nc21 (centres unmarked) [Compound 11]
Plant response rating, Barnyardgrass [1, 15]: 80
Barnyardgrass plant response rating ([1]; Flooded Paddy, Rate 250 g/ha): 30
Plant response rating, Barnyardgrass [1, 17]: 0
Plant response rating, Barnyardgrass [1, 18]: 20
Flatsedge plant response rating ([2]; Rate 250 g/ha): 90
Flatsedge plant response rating ([2]; Rate 500 g/ha): 100
Plant response rating, Flatsedge ([2]; Rate 62 g/ha): 90
Plant response rating, Flatsedge ([2]; Rate 125 g/ha): 90
Plant response rating, Rice (rice (Oryza saliva) [3]; [15]): 30
Rice plant response rating (rice (Oryza saliva) [3]; Flooded Paddy, Rate 250 g/ha): 20
Plant response rating, Rice (rice (Oryza saliva) [3]; [17]): 0
Plant response rating, Rice (rice (Oryza saliva) [3]; [18]): 0
Plant response rating, Ducksalad [4, 15]: 30
Ducksalad plant response rating ([4]; Flooded Paddy, Rate 250 g/ha): 20
Plant response rating, Ducksalad [4, 17]: 0
Plant response rating, Ducksalad [4, 18]: 20
Plant response rating (visual injury vs untreated controls) ([5]; Rate 500 g/ha): 0
Plant response rating (visual injury vs untreated controls) ([5]; Rate 2000 g/ha): 0
Plant response rating (visual injury vs untreated controls) ([6]; Rate 500 g/ha): 10
Plant response rating (visual injury vs untreated controls) ([6]; Rate 2000 g/ha): 10
Plant response rating, Barnyardgrass [7]: 60
Plant response rating, Flatsedge [8]: 100
Plant response rating, Rice (rice (Oryza saliva) [9]): 40
Plant response rating, Ducksalad [10]: 90
Plant response rating (visual injury vs untreated controls) ([11]; Rate 500 g/ha): 0
Plant response rating (visual injury vs untreated controls) ([11]; Rate 2000 g/ha): 10
Plant response rating (visual injury vs untreated controls) ([12]; Rate 500 g/ha): 20
Plant response rating (visual injury vs untreated controls) ([12]; Rate 2000 g/ha): 40
Plant response rating (visual injury vs untreated controls) ([13]; Rate 500 g/ha): 70
Plant response rating (visual injury vs untreated controls) ([13]; Rate 2000 g/ha): 90
Plant response rating (visual injury vs untreated controls) ([14]; Rate 500 g/ha): 0
Plant response rating (visual injury vs untreated controls) ([14]; Rate 2000 g/ha): 50

O=C1C(n2cccn2)CCN1c1cccc(C(F)(F)F)c1 (centres unmarked) [Compound 15]
Plant response rating (visual injury vs untreated controls) ([5]; Rate 500 g/ha): 0
Plant response rating (visual injury vs untreated controls) ([5]; Rate 2000 g/ha): 10
Plant response rating (visual injury vs untreated controls) ([6]; Rate 500 g/ha): 30
Plant response rating (visual injury vs untreated controls) ([6]; Rate 2000 g/ha): 20
Plant response rating, Barnyardgrass [7]: 0
Plant response rating, Flatsedge [8]: 0
Plant response rating, Rice (rice (Oryza saliva) [9]): 0
Plant response rating, Ducksalad [10]: 0
Plant response rating (visual injury vs untreated controls) ([11]; Rate 500 g/ha): 10
Plant response rating (visual injury vs untreated controls) ([11]; Rate 2000 g/ha): 10
Plant response rating (visual injury vs untreated controls) ([12]; Rate 500 g/ha): 10
Plant response rating (visual injury vs untreated controls) ([12]; Rate 2000 g/ha): 10
Plant response rating (visual injury vs untreated controls) ([13]; Rate 500 g/ha): 0
Plant response rating (visual injury vs untreated controls) ([13]; Rate 2000 g/ha): 0
Plant response rating (visual injury vs untreated controls) ([14]; Rate 500 g/ha): 10
Plant response rating (visual injury vs untreated controls) ([14]; Rate 2000 g/ha): 10
